± gives the expanded uncertainty stated by the source.
Test: xn = mol fraction of the nth substance listed
Conditions: 304.21 K, Fluid (supercritical or subcritical phases), Vibrating tube method, x1 = 0.97

O=C=O [carbon dioxide] + CO
Conditions	mass density [kg/m3]
10625 kPa	791.47 ± 0.82
10650 kPa	791.91 ± 0.82
10675 kPa	792.32 ± 0.82
10700 kPa	792.79 ± 0.82
10725 kPa	793.26 ± 0.82
10750 kPa	793.67 ± 0.82
10775 kPa	794.08 ± 0.82
10800 kPa	794.49 ± 0.82
10825 kPa	794.91 ± 0.82
10850 kPa	795.38 ± 0.82
10875 kPa	795.84 ± 0.82
10900 kPa	796.21 ± 0.82
10925 kPa	796.66 ± 0.82
10950 kPa	797.06 ± 0.82
10975 kPa	797.53 ± 0.82
11000 kPa	797.93 ± 0.82
11025 kPa	798.32 ± 0.82
11050 kPa	798.73 ± 0.82
11075 kPa	799.17 ± 0.82
11100 kPa	799.63 ± 0.82
11125 kPa	799.99 ± 0.82
11150 kPa	800.45 ± 0.82
11175 kPa	800.8 ± 0.82
11200 kPa	801.23 ± 0.82
11225 kPa	801.64 ± 0.82
11250 kPa	802.05 ± 0.82
11275 kPa	802.5 ± 0.82
11300 kPa	802.86 ± 0.82
11325 kPa	803.31 ± 0.82
11350 kPa	803.73 ± 0.82
11375 kPa	804.09 ± 0.82
11400 kPa	804.56 ± 0.82
11425 kPa	804.93 ± 0.82
11450 kPa	805.27 ± 0.82
11475 kPa	805.69 ± 0.82
11500 kPa	806.12 ± 0.82
11525 kPa	806.52 ± 0.82
11550 kPa	806.91 ± 0.82
11575 kPa	807.3 ± 0.82
11600 kPa	807.66 ± 0.82
11625 kPa	808.01 ± 0.82
11650 kPa	808.41 ± 0.82
11675 kPa	808.81 ± 0.82
11700 kPa	809.25 ± 0.82
11725 kPa	809.62 ± 0.82
11750 kPa	810 ± 0.82
11775 kPa	810.37 ± 0.82
11800 kPa	810.74 ± 0.82
11825 kPa	811.11 ± 0.82
11850 kPa	811.47 ± 0.82
11875 kPa	811.83 ± 0.82
11900 kPa	812.25 ± 0.82
11925 kPa	812.53 ± 0.82
11950 kPa	812.98 ± 0.82
11975 kPa	813.33 ± 0.82
12000 kPa	813.7 ± 0.82
12025 kPa	814.08 ± 0.82
12050 kPa	814.43 ± 0.82
12075 kPa	814.76 ± 0.82
12100 kPa	815.17 ± 0.82
12125 kPa	815.5 ± 0.82
12150 kPa	815.82 ± 0.82
12175 kPa	816.22 ± 0.82
12200 kPa	816.54 ± 0.82
12225 kPa	816.89 ± 0.82
12250 kPa	817.23 ± 0.82
12275 kPa	817.54 ± 0.82
12300 kPa	817.94 ± 0.82
12325 kPa	818.27 ± 0.82
12350 kPa	818.61 ± 0.82
12375 kPa	818.95 ± 0.82
12400 kPa	819.29 ± 0.82
12425 kPa	819.62 ± 0.82
12450 kPa	819.95 ± 0.82
12475 kPa	820.29 ± 0.82
12500 kPa	820.61 ± 0.82
12525 kPa	820.93 ± 0.82
12550 kPa	821.24 ± 0.82
12575 kPa	821.61 ± 0.82
12600 kPa	821.94 ± 0.82
12625 kPa	822.23 ± 0.82
12650 kPa	822.53 ± 0.82
12675 kPa	822.85 ± 0.82
12700 kPa	823.18 ± 0.82
12725 kPa	823.45 ± 0.82
12750 kPa	823.79 ± 0.82
12775 kPa	824.13 ± 0.82
12800 kPa	824.43 ± 0.82
12825 kPa	824.72 ± 0.82
12850 kPa	825.02 ± 0.82
12875 kPa	825.36 ± 0.82
12900 kPa	825.66 ± 0.82
12925 kPa	825.97 ± 0.82
12950 kPa	826.28 ± 0.82
12975 kPa	826.52 ± 0.82
13000 kPa	826.85 ± 0.82
13025 kPa	827.19 ± 0.82
13050 kPa	827.45 ± 0.82
13075 kPa	827.74 ± 0.82
13100 kPa	828.02 ± 0.82
13125 kPa	828.34 ± 0.82
13150 kPa	828.59 ± 0.82
13175 kPa	828.91 ± 0.82
13200 kPa	829.21 ± 0.82
13225 kPa	829.5 ± 0.82
13250 kPa	829.81 ± 0.82
13275 kPa	830.06 ± 0.82
13300 kPa	830.33 ± 0.82
13325 kPa	830.63 ± 0.82
13350 kPa	830.91 ± 0.82
13375 kPa	831.19 ± 0.82
13400 kPa	831.47 ± 0.82
13425 kPa	831.75 ± 0.82
13450 kPa	832.03 ± 0.82
13475 kPa	832.3 ± 0.82
13500 kPa	832.56 ± 0.82
13525 kPa	832.83 ± 0.82
13550 kPa	833.09 ± 0.82
13575 kPa	833.35 ± 0.82
13600 kPa	833.6 ± 0.82
13625 kPa	833.85 ± 0.82
13650 kPa	834.12 ± 0.82
13675 kPa	834.42 ± 0.82
13700 kPa	834.66 ± 0.82
13725 kPa	834.9 ± 0.82
13750 kPa	835.2 ± 0.82
13775 kPa	835.42 ± 0.82
13800 kPa	835.64 ± 0.82
13825 kPa	835.86 ± 0.82
13850 kPa	836.06 ± 0.82
13875 kPa	836.22 ± 0.82
13900 kPa	836.51 ± 0.82
13925 kPa	836.81 ± 0.82
13950 kPa	837.08 ± 0.82
13975 kPa	837.35 ± 0.82
14000 kPa	837.64 ± 0.82
14025 kPa	837.92 ± 0.82
14050 kPa	838.19 ± 0.82
14075 kPa	838.5 ± 0.82
14100 kPa	838.78 ± 0.82
14125 kPa	839.03 ± 0.82
14150 kPa	839.31 ± 0.82
14175 kPa	839.62 ± 0.82
14200 kPa	839.87 ± 0.82
14225 kPa	840.12 ± 0.82
14250 kPa	840.43 ± 0.82
14275 kPa	840.68 ± 0.82
14300 kPa	840.92 ± 0.82
14325 kPa	841.24 ± 0.82
14350 kPa	841.49 ± 0.82
14375 kPa	841.72 ± 0.82
14400 kPa	842.04 ± 0.82
14425 kPa	842.27 ± 0.82
14450 kPa	842.52 ± 0.82
14475 kPa	842.78 ± 0.82
14500 kPa	843.08 ± 0.82
14525 kPa	843.34 ± 0.82
14550 kPa	843.58 ± 0.82
14575 kPa	843.9 ± 0.82
14600 kPa	844.14 ± 0.82
14625 kPa	844.38 ± 0.82
14650 kPa	844.61 ± 0.82
14675 kPa	844.86 ± 0.82
14700 kPa	845.17 ± 0.82
14725 kPa	845.44 ± 0.82
14750 kPa	845.72 ± 0.82
14775 kPa	845.96 ± 0.82
14800 kPa	846.19 ± 0.82
14825 kPa	846.5 ± 0.82
14850 kPa	846.73 ± 0.82
14875 kPa	846.98 ± 0.82
14900 kPa	847.24 ± 0.82
14925 kPa	847.52 ± 0.82
14950 kPa	847.71 ± 0.82
14975 kPa	848 ± 0.82
15000 kPa	848.29 ± 0.82
15025 kPa	848.51 ± 0.82
15050 kPa	848.76 ± 0.82
15075 kPa	849.02 ± 0.82
15100 kPa	849.3 ± 0.82
15125 kPa	849.56 ± 0.82
15150 kPa	849.76 ± 0.82
15175 kPa	850.04 ± 0.82
15200 kPa	850.3 ± 0.82
15225 kPa	850.56 ± 0.82
15250 kPa	850.76 ± 0.82
15275 kPa	851.04 ± 0.82
15300 kPa	851.23 ± 0.82
15325 kPa	851.51 ± 0.82
15350 kPa	851.79 ± 0.82
15375 kPa	851.98 ± 0.82
15400 kPa	852.22 ± 0.82
15425 kPa	852.43 ± 0.82
15450 kPa	852.7 ± 0.82
15475 kPa	852.92 ± 0.82
15500 kPa	853.2 ± 0.82
15525 kPa	853.4 ± 0.82
15550 kPa	853.64 ± 0.82
15575 kPa	853.89 ± 0.82
15600 kPa	854.15 ± 0.82
15625 kPa	854.39 ± 0.82
15650 kPa	854.57 ± 0.82
15675 kPa	854.81 ± 0.82
15700 kPa	855.06 ± 0.82
15725 kPa	855.3 ± 0.82
15750 kPa	855.49 ± 0.82
15775 kPa	855.71 ± 0.82
15800 kPa	855.96 ± 0.82
15825 kPa	856.2 ± 0.82
15850 kPa	856.41 ± 0.82
15875 kPa	856.68 ± 0.82
15900 kPa	856.93 ± 0.82
15925 kPa	857.08 ± 0.82
15950 kPa	857.32 ± 0.82
15975 kPa	857.56 ± 0.82
16000 kPa	857.77 ± 0.82
16025 kPa	857.95 ± 0.82
16050 kPa	858.19 ± 0.82
16075 kPa	858.44 ± 0.82
16100 kPa	858.66 ± 0.82
16125 kPa	858.84 ± 0.82
16150 kPa	859.07 ± 0.82
16175 kPa	859.32 ± 0.82
16200 kPa	859.52 ± 0.82
16225 kPa	859.74 ± 0.82
16250 kPa	859.97 ± 0.82
16275 kPa	860.2 ± 0.82
16300 kPa	860.35 ± 0.82
16325 kPa	860.63 ± 0.82
16350 kPa	860.83 ± 0.82
16375 kPa	861.01 ± 0.82
16400 kPa	861.22 ± 0.82
16425 kPa	861.43 ± 0.82
16450 kPa	861.65 ± 0.82
16475 kPa	861.85 ± 0.82
16500 kPa	862.01 ± 0.82
16525 kPa	862.21 ± 0.82
16550 kPa	862.42 ± 0.82
16575 kPa	862.62 ± 0.82
16600 kPa	862.9 ± 0.82
16625 kPa	863.08 ± 0.82
16650 kPa	863.26 ± 0.82
16675 kPa	863.56 ± 0.82
